In US20080242661A1, “Novel compounds useful for the treatment of degenerative & inflammatory diseases” (priority 2006, published 2008):

Key:
purified PDE1A enzyme [1] = target: T1, purified PDE1A enzyme (Homo sapiens, UniProt P54750); assay: In vitro PDE1A primary screening assay (Cisbio cAMP dynamic htrf kit); format: biochemical; details: 100 nM cAMP; for inhibition at 10 µM: read-out: inhibition of PDE1A (control compounds, primary screening)
Excerpt: For the primary screening, an assay using the cAMP dynamic htrf kit from Cisbio (catnr 62AM2PEB) was used. Its principle is based on HTRF® technology (Homogeneous Time-Resolved Fluorescence). The method is a competitive immunoassay between native cAMP and the cAMP labeled with XL665. The tracer binding is visualized by a monoclonal antibody against cAMP, labeled with Cryptate. The specific signal (i.e. energy transfer) is inversely proportional to the concentration of cAMP in the sample (see FIG. 1).
For the enzymatic reaction a mix of 20 μL is made with purified PDE1A enzyme, 100 nM cAMP and the compound (10 μM in a final concentration of 1% DMSO) in a black 384-plate. The reaction buffer is Tris 20 mM pH 7.4, 4 μg/mL calmodulin, 3 mM MgCl2, 1.5 mM CaCl2, 0.2 mg/mL BSA and 0.001% Brij-35. After an incubation of 30 minutes at room temperature, the reaction is stopped by the addition of 10 μL labelled cAMP-XL665 and 10 μL anti-cAMP-Cryptate. After 1 hour incubation at room temperature, the readout is performed on the Envision (excitation 360 nm; emission donor 615 nm emission acceptor 665 nm).
PDE1A hydrolyses cAMP into 5′AMP; this low cAMP concentration will result in a high signal. A PDE1A inhibitor will result in a decrease of the signal.
As a positive control we used 10 μM Vardenafil (100% inhibition), as negative control is used 1% DMSO (0% inhibition), as variable control 10 μM Zaprinast (+/−50% inhibition) is used and as negative control compound 10 μM Ro-20-1724 (0% inhibition). The positive and negative control were used to calculate z′ and PIN values.
All compounds were screened in single at 10 μM. The hit criterium was set at PIN 50 (50% inhibition).

purified PDE1A enzyme [2] = target: T1, purified PDE1A enzyme; assay: In vitro PDE1A assay, dose response (Biomol Cyclic Nucleotide Phosphodiesterase Assay Kit, colorimetric); format: biochemical; details: 10 μM; read-out: inhibition of PDE1A (positive control, dose response assay)
Summary of the method: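 Purified PDE1A with 100 μM cAMP and 5′-nucleotidase, incubated 45 min at 37° C in Tris 20 mM pH 7.4 with calmodulin, MgCl2 and CaCl2; released phosphate read by malachite-green absorbance at 615 nm. Duplicate 8-point ⅓ dilutions from 20 μM in 1% DMSO; 10 μM vardenafil defines 100% inhibition.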

inhibition at 10 µM (purified PDE1A enzyme [1]) [%]	inhibition of PDE1A (control compounds, primary screening) (purified PDE1A enzyme [1]; 10 μM) [%]	inhibition at 10 µM (purified PDE1A enzyme [2]) [%]	Compound
~50	–	–	CCCOc1ccccc1-c1nc2nn[nH]c2c(=O)[nH]1 [Zaprinast]
–	0	–	CCCCOc1cc(CC2CNC(=O)N2)ccc1OC (stereo not shown) [Ro-20-1724]
100	–	100	CCCc1nc(C)c2c(=O)[nH]c(-c3cc(S(=O)(=O)N4CCN(CC)CC4)ccc3OCC)nn12 [Vardenafil, reference compound]
